Experimental findings from US20190083495A1, “Methods Of Preventing Or Reducing A Fibrotic Response Using CSF1R Inhibitors” (Massachusetts Institute of Technology, priority 2016, published 2019) are described below.

For test [1], the system named is VEGF. Kind of test: VEGF Luminex protein quantification of protein lysates. Particulars: lysates of alginate spheres and tissue retrieved at 14 days. The test is classed as in vivo, C57BL/6 mice. The method, then:
For targeted macrophage depletions, clodrosome (200 μL/mouse) (Encapsula Nano Sciences, Nashville, Tenn.) were injected intraperitoneally starting at −3 days (prior to implantation, day 0), and for every 7 days thereafter (so days −3, 4, and 11). To achieve neutrophil depletion, affinity purified anti-Ly6g (Clone 1A8) antibody (250 ug/mouse) (BioLegend, San Diego, Calif.) was administered also starting at day −3, and every 3 days thereafter (except the day of implantation). For the combination therapy, in order to avoid drug-antibody interactions, each agent was administered 4 hours apart from one another. […]
Cytokine array analysis was performed using the Luminex Bio-Rad Bio-Plex Pro mouse cytokine panel based on Luminex beads (multiplexing both the 23 and 8-cytokine arrays) (Bio-Rad, Hercules, Calif.), according to manufacturer's instructions. 1:4 diluted mouse sera samples were analyzed for the time course, and protein lysates taken from fibrosed tissue and alginate microspheres, loaded at a concentration of 500 μg/mL (200 uL per sample), were run to compare cytokine responses across mock (saline) treated versus wildtype, knockout or serially perturbed/depleted C57BL/6 mice implanted with 500 μm SLG20 alginate spheres. […] The plate was then read on a BioPlex-200 plate reader, with absolute concentrations obtained through fitting a standard curve. […]

Test [2] concerns C57BL/6 mice. Kind of test: FACS analysis of immune cells dissociated from retrieved spheres, tissue and spleen. It counts as in vivo. The method, then:
For targeted macrophage depletions, clodrosome (200 μL/mouse) (Encapsula Nano Sciences, Nashville, Tenn.) were injected intraperitoneally starting at −3 days (prior to implantation, day 0), and for every 7 days thereafter (so days −3, 4, and 11). To achieve neutrophil depletion, affinity purified anti-Ly6g (Clone 1A8) antibody (250 ug/mouse) (BioLegend, San Diego, Calif.) was administered also starting at day −3, and every 3 days thereafter (except the day of implantation). For the combination therapy, in order to avoid drug-antibody interactions, each agent was administered 4 hours apart from one another. To neutralize secreted CXCL13, anti-CXCL13 antibody (mAB470, R&D Systems) was injected i.p. in sterile 1×PBS at a dose of 100 μg/mouse, once every 3 days, starting 3 days prior to implantation as well. For selective macrophage inhibition and polarization, the CSF1R-targeted inhibitor GW2580 (LC Labs, Woburn, Mass.), was dissolved in a 1:1 DMSO/PEG400 solution, and injected daily (starting 1 day prior to implantation) at a dose of 160 mg/kg BW subcutaneously (s.c.), to eliminate concerns of vehicle directly perturbing responding immune cells as well as a recovering implant site.
Single-cell suspensions of freshly excised tissues were prepared using a gentleMACS Dissociator (Miltenyi Biotec, Auburn, Calif.) according to the manufacturer's protocol. […]

`COc1ccc(COc2ccc(Cc3cnc(N)nc3N)cc2OC)cc1` [GW2580]: the VEGF protein production entry in test [1] is given as “spared to normal levels”. Besides, in test [2] (alginate spheres, 14 days post-i.p. implant), the “macrophage, neutrophil and B cell presence on spheres (normalized to cell counts from 100 μl material)” value is recorded as “complete loss”. The “inhibition of host immune attack to alginate, glass and polystyrene spheres” value in test [2] (compared with clodrosome-based macrophage depletion, 14 days i.p.) is reported as “as effective as clodrosome-based macrophage depletion”.
